# How the values were obtained:
# [1] = system: GIPR protein in H295R cells; experiment: GIPR protein by immunofluorescence and automated High-throughput Microscopy in H295R cells; assay type: cell-based, human
# Protocol: (§1) H295R cells were cultivated in DMEM/Ham's F-12 Medium supplemented with 2 mM Glutamine, 100 IU/mL Penicillin, 100 μg/mL Streptomycin, 10% Fetal Bovine Serum, 20 mM HEPES, and a mixture of Insulin (1 μM), Transferrin (5.8 mg/ml) and Selenium (60 nM). Human pancreatic β-cells EndoC-βH1 have also been used. They are cultivated as described in Ravassard P. et al^38.
# (§2) Cells were incubated up to 10 days with 0.5 μM GSK-LSD1 an irreversible inhibitor of KDM1A (Sigma-Aldrich).
# (§3) Transfection of siRNAs protocol was performed as follow. Briefly, H295R cells were cultivated in serum free Optimem medium (Life Technologies) for 2 hours, then incubated for 6 h with Lipofectamine RNAiMAX (2 μL/well) and 100 nM siRNA targeting KDM1A or Scrambled siRNA (Horizon). Two iterative transfections were performed at 1 and 3 days after seeding. Expression level of the studied gene was determined using reverse transcription quantitative polymerase chain reaction (RT-qPCR).
# Cells were grown on a 24 well plates containing glass coverslips (14-mm diameter). After 24 h, siRNA targeting KDM1A or Scramble siRNA (100 nM) were transfected as described above. Briefly, cells were fixed with 4% paraformaldehyde and permeabilized 10 min with a 0.2% solution of Triton X100 diluted in PBS. […]
# Sequential images (20×-0.40 NA lens) were acquired for each channel with the automated ArrayScan VTI imaging and analyzing platform (Thermo Fisher Scientific). The TargetActivation Algorithm (v.4) was used to detect and quantify the GIPR fluorescence as following. DAPI fluorescence was used to find the focus and was sequentially acquired with GIPR fluorescence in order to give separate image files. […] In order to quantify the amount of GIPR fluorescence (channel 2) present in the cytoplasm of the primary selected object, this nuclear mask was dilated to cover the cytoplasmic region. […] The cytoplasmic mask was lastly used to detect, select and quantify the average fluorescence of GIPR in the final population of transfected cells (n>40,000). […]
# [2] = system: GIPR messenger RNA levels in human pancreatic β-cells EndoC-βH1; experiment: GIPR transcripts by RT-qPCR in pancreatic β-cells EndoC-βH1 after KDM1A inhibition; assay type: cell-based
# Protocol: as §1, §2, §3
# (§4) RNA extraction from cell cultures and tissue protocol and RT-qPCR protocol were as follows: DNA was extracted from frozen adrenal samples using the phenol-chloroform-isoamyl alcohol extraction method. DNA was extracted from Formalin-Fixed Paraffin-Embedded (FFPE) sample using NucleoSpin DNA FFPE XS kit (Macherey-Nagel) or from blood leucocytes using either an automated QIAsymphony platform (Qiagen) or the Flexigene DNA Kit (Qiagen). Total RNA was extracted from tissues or cells using TRIzol reagent according to the manufacturer's instructions. After DNAse I treatment (New England Biolabs), 1 μg of total RNA was reverse transcribed using the High-Capacity cDNA reverse transcription kit (Life Technologies). Samples were analyzed by RT-qPCR using the Power SYBR® Green PCR Master Mix (Life Technologies) or the TaqMan Gene Expression Assays (Life Technologies, ref. 4331182 and 4448489) and were run on a QS6 Real-Time PCR System (Life Technologies). […] Relative expression of the gene of interest was expressed as a ratio of attomoles to attomoles of housekeeper genes.
# [3] = system: GIPR expression in H295R cells; experiment: GIPR messenger RNA by RT-qPCR in H295R cells after KDM1A inhibition; assay type: cell-based, human; conditions: for GIPR messenger RNA level (RT-qPCR): GSK-LSD1 at 0.5 μM
# Protocol: as §1, §2, §3, §4
structure (smiles),measurement,setting,value
c1ccc([C@@H]2C[C@H]2NC2CCNCC2)cc1 [GSK-LSD1],GIPR protein expression in the cytoplasm (automated High-throughput Microscopy),"[1]; H295R cells transfected (KDM1A siRNA) and treated (GSK-LSD1), seven days, p<0.0001, analyzed cells>40 000",increase in protein expression
same,GIPR expression observed by immunofluorescence,"[1]; H295R cells, KDM1A siRNA transfection and concomitant pharmacological inhibition (GSK-LSD1) for seven days",significant GIPR expression
same,expression of GIPR protein (automated High-throughput Microscopy),"[1]; H295R cells, compared to untreated cells, analyzed cells>40 000, p<0.001",significant increased expression of GIPR protein
same,GIPR transcripts (RT-qPCR),"[2]; KDM1A siRNA and GSK-LSD1, 3 days of treatment, p=0.0113",significant increase in GIPR transcripts
same,GIPR transcripts (RT-qPCR),"[2]; KDM1A siRNA and GSK-LSD1, 7 days of treatment, p=0.0027",significant increase in GIPR transcripts
same,"GIPR expression (GIPR transcripts, RT-qPCR)","[2]; KDM1A silencing and concomitant GSK-LSD1, time not given",increased GIPR expression
same,GIPR messenger RNA level (RT-qPCR),"[3]; seven days, p=0.0082",significant increase of GIPR expression
same,GIPR messenger RNA level (RT-qPCR),"[3]; three days, p=0.0069",significant increase of GIPR expression
same,"GIPR expression, quantified by RT-qPCR","[3]; treatment with GSK-LSD1, time not given",increased GIPR expression

# Reference: patent US20240360510A1, “DETECTION OF KDM1A LOSS OF ACTIVITY FOR DIAGNOSING ENDOCRINE DISORDERS” (UNIVERSITE PARIS-SACLAY, priority 2021, published 2024)
